The molecules below were run against T1, RORc ligand binding domain (Homo sapiens, UniProt P51449) (assay: In vitro RORc ligand binding assay (25-[3H]hydroxycholesterol displacement, filter binding)).
T1 construct: host or cells: E. coli
T1 sequence (P51449 269-508 limits assumed): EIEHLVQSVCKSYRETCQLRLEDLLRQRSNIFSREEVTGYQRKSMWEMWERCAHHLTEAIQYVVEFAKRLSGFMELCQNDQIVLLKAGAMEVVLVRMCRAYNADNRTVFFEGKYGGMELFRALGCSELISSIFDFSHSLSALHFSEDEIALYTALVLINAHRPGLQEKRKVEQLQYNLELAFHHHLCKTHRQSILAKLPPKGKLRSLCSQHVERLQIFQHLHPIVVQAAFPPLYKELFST

SMILES | IC50 [µM]
CC1(C)[C@H]2CC[C@]1([C@@H]1CN(S(C)(=O)=O)CCO1)c1nnc(-c3c(F)cccc3F)cc12 [Compound 65, (R)-2-((5R,8R)-3-(2,6-difluorophenyl)-9,9-dimethyl-5,6,7,8-tetrahydro-5,8-methanocinnolin-8-yl)-4-(methylsulfonyl)morpholine] | 0.224
CC1(C)[C@H]2CC[C@]1([C@H]1CCCN(C(N)=O)C1)c1nnc(-c3c(F)cccc3F)cc12 [Compound 120, 3-[5-(2,6-difluorophenyl)-11,11-dimethyl-3,4-diazatricyclo[6.2.1.02,7]undeca-2,4,6-trien-1-yl]piperidine-1-carboxamide] | 0.0049
COC(=O)N1CCO[C@H]([C@@]23CC[C@@H](c4cc(-c5c(F)cccc5F)nnc42)C3(C)C)C1 [Compound 85, (R)-methyl 2-((5R,8R)-3-(2,6-difluorophenyl)-9,9-dimethyl-5,6,7,8-tetrahydro-5,8-methanocinnolin-8-yl)morpholine-4-carboxylate] | 0.0698
CC1(C)[C@H]2CC[C@]1([C@@H]1CN(C(=O)c3c[nH]c(=O)cn3)CCO1)c1nnc(-c3c(F)cccc3F)cc12 [Compound 118, 5-[2-[5-(2,6-difluorophenyl)-11,11-dimethyl-3,4-diazatricyclo[6.2.1.02,7]undeca-2,4,6-trien-1-yl]morpholine-4-carbonyl]-1H-pyrazin-2-one] | 0.011
CC1(C)[C@H]2CC[C@]1([C@H]1CCCN(c3cnccn3)C1)c1nnc(-c3c(F)cccc3F)cc12 [Compound 165, 5-(2,6-difluorophenyl)-11,11-dimethyl-1-(1-pyrazin-2-yl-3-piperidyl)-3,4-diazatricyclo[6.2.1.02,7]undeca-2,4,6-triene] | 0.024
CN1CCN[C@H]([C@@]23CC[C@@H](c4cc(-c5c(F)cccc5F)nnc42)C3(C)C)C1 [Compound 183, 5-(2,6-difluorophenyl)-11,11-dimethyl-1-(4-methylpiperazin-2-yl)-3,4-diazatricyclo[6.2.1.02,7]undeca-2,4,6-triene] | 0.013
CC1(C)[C@H]2CC[C@]1([C@H]1CCCN(c3cc[nH]c(=O)c3)C1)c1nnc(-c3c(F)cccc3F)cc12 [Compound 172, 4-[3-[5-(2,6-difluorophenyl)-11,11-dimethyl-3,4-diazatricyclo[6.2.1.02,7]undeca-2,4,6-trien-1-yl]-1-piperidyl]-1H-pyridin-2-one] | 0.02
CNC(=O)c1cncc(O[C@@]23CC[C@@H](c4cc(-c5c(F)cccc5F)nnc42)C3(C)C)n1 [Compound 29, 6-(((5S,8R)-3-(2,6-difluorophenyl)-9,9-dimethyl-5,6,7,8-tetrahydro-5,8-methanocinnolin-8-yl)oxy)-N-methylpyrazine-2-carboxamide] | 0.385
CCOC(=O)c1coc(N2CCO[C@H]([C@@]34CC[C@@H](c5cc(-c6c(F)cccc6F)nnc53)C4(C)C)C2)n1 [Compound 126, ethyl 2-[2[5-(2,6-difluorophenyl)-11,11-dimethyl-3,4-diazatricyclo[6.2.1.02,7]undeca-2,4,6-trien-1-yl]morpholin-4-yl]oxazole-4-carboxylate] | 0.43
CNC(=O)N1CCC[C@H]([C@@]23CC[C@@H](c4cc(-c5c(F)cccc5F)nnc42)C3(C)C)C1 [Compound 96, (R)-3-((5R,8R)-3-(2,6-difluorophenyl)-9,9-dimethyl-5,6,7,8-tetrahydro-5,8-methanocinnolin-8-yl)-N-methylpiperidine-1-carboxamide] | 0.013
Cc1n[nH]c(N2CCO[C@@H]([C@@]34CC[C@@H](c5cc(-c6c(F)cccc6F)nnc53)C4(C)C)C2)n1 [Compound 93, (S)-2-((5R,8R)-3-(2,6-difluorophenyl)-9,9-dimethyl-5,6,7,8-tetrahydro-5,8-methanocinnolin-8-yl)-4-(3-methyl-1H-1,2,4-triazol-5-yl)morpholine] | 0.191
CC1(C)[C@H]2CC[C@]1([C@@H]1CN(c3ccccn3)CCO1)c1nnc(-c3c(F)cccc3F)cc12 [Compound 79, (R)-2-((5R,8R)-3-(2,6-difluorophenyl)-9,9-dimethyl-5,6,7,8-tetrahydro-5,8-methanocinnolin-8-yl)-4-(pyridin-2-yl)morpholine] | 0.412
CC[C@H](O[C@@]12CC[C@@H](c3cc(-c4c(F)cccc4F)nnc31)C2(C)C)c1nnc(C)o1 [Compound 21, 2-((S)-1-(((5S,8R)-3-(2,6-difluorophenyl)-9,9-dimethyl-5,6,7,8-tetrahydro-5,8-methanocinnolin-8-yl)oxy)propyl)-5-methyl-1,3,4-oxadiazole] | 0.051
CC1(C)[C@H]2CC[C@]1(c1cccc3nccn13)c1nnc(-c3c(F)cccc3F)cc12 [Compound 107, (5R,8S)-3-(2,6-difluorophenyl)-8-(imidazo[1,2-a]pyridin-5-yl)-9,9-dimethyl-5,6,7,8-tetrahydro-5,8-methanocinnoline] | 0.0918
CC1(C)[C@H]2CC[C@]1([C@@H]1CN(Cc3ccccc3)CCO1)c1nnc(-c3c(F)cccc3F)cc12 [Compound 60, (R)-4-benzyl-2-((5R,8R)-3-(2,6-difluorophenyl)-9,9-dimethyl-5,6,7,8-tetrahydro-5,8-methanocinnolin-8-yl)morpholine] | 0.317
CC1(C)[C@H]2CC[C@]1([C@H]1CN(c3ncn[nH]3)CCO1)c1nnc(-c3c(F)cccc3F)cc12 [Compound 144, 2-[5-(2,6-difluorophenyl)-11,11-dimethyl-3,4-diazatricyclo[6.2.1.02,7]undeca-2,4,6-trien-1-yl]-4-(1H-1,2,4-triazol-5-yl)morpholine] | 0.034
CC1(C)[C@H]2CC[C@]1([C@H]1CN(c3nc(CO)co3)CCO1)c1nnc(-c3c(F)cccc3F)cc12 [Compound 128, [2-[2-[5-(2,6-difluorophenyl)-11,11-dimethyl-3,4-diazatricyclo[6.2.1.02,7]undeca-2,4,6-trien-1-yl]morpholin-4-yl]oxazol-4-yl]methanol] | 0.037
CC[C@@H](O[C@@]12CC[C@@H](c3cc(-c4c(F)cccc4F)nnc31)C2(C)C)C(N)=O [Compound 31, (R)-2-(((5S,8R)-3-(2,6-difluorophenyl)-9,9-dimethyl-5,6,7,8-tetrahydro-5,8-methanocinnolin-8-yl)oxy)butanamide] | 0.0088

Source: US9994551B2, “Pyridazine derivatives as RORc modulators” (Genentech, Inc., priority 2015, dated 2018)
